Results on six molecules are retold here after ChEMBL document CHEMBL1201862, “PubChem BioAssay data set” (2004).

Holding throughout (experiment): NCI-60 cell line screen, 48 h
Assay [1] concerns DU-145.
For assay [2], the system named is HCT-15.
For assay [3], the system named is Hs-578T.
Assay [4] deals with KM12.
The subject of assay [5] is MCF7.
In assay [6] the test system is Malme-3M.
Assay [7] relates to NCI-H23.
Assay [8] deals with NCI-H460.
Assay [9] concerns NCI-H522.
Assay [10] relates to OVCAR-3.
Assay [11] has as its system OVCAR-5.
For assay [12], the system named is OVCAR-8.
Assay [13] deals with RPMI-8226.
Assay [14] has as its system SF-268.
The subject of assay [15] is SF-295.
Assay [16] concerns SK-MEL-28.
In assay [17] the test system is SNB-75.
Assay [18] deals with T47D.
Assay [19] relates to U-251.
In assay [20] the test system is UO-31.

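The compound was tested at five concentrations on cells cultured in 96-well plates, with a 48-hour exposure period. GI50 is the concentration that inhibits growth by half.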 The source made the active and inactive calls. Rule as the data show it: active = GI50 up to about 1.1 µM and inactive = higher.

For the molecule `CCCCCCCCCCCCCCCCCCOP(=O)([O-])OC1CC[N+](C)(C)CC1` [PERIFOSINE], the GI50 was 16.9 µM (inactive) in [1]; 2.48 µM in assay [2]; 13 µM (inactive) in assay [3]; 0.53 µM (active) in assay [4]; 15.7 µM (inactive) in assay [5]; 7.06 µM (inactive) in assay [6]. Moreover, the GI50 was 16.1 µM (inactive) in assay [7]; 1.75 µM (inactive) in assay [8]; 2.97 µM (inactive) in assay [9]; 13.2 µM (inactive) in [10]; 2.52 µM (inactive) in assay [11]; 14.7 µM (inactive) in assay [12]. Further, the GI50 is 3.83 µM (inactive) in assay [13]; 9.89 µM (inactive) in assay [14]; 4.98 µM (inactive) in assay [15]; 17.9 µM (inactive) in [16]; 5.14 µM (inactive) in [17]; 17.9 µM (inactive) in [18]. Further, the results for the GI50 in assay [19] and in [20] were 12.4 µM (inactive) and 8.91 µM (inactive), respectively.
`COC(=O)CCc1cc(OC)c(O)c(C(Cc2ccc(OC)c(OC)c2)C(=O)OC)c1` (stereo not given): the GI50 in assay [1] was > 100 µM (inactive); in assay [2], more than 100 µM; in assay [3] it was > 100 µM (inactive); in assay [4] it was > 100 µM (inactive); in [5], > 100 µM (inactive); in assay [6] it was > 100 µM (inactive). Also, the GI50 in [7], in assay [8], in assay [9], in assay [10], in assay [11] and in [12] was > 100 µM (inactive) in each case. The GI50 in assay [13], in assay [14], in assay [15], in assay [16], in [17] and in [18] was > 100 µM (inactive) in each case. In addition, the GI50 in [19] and in assay [20] was > 100 µM (inactive) each time.
With `C[N+](C)(C)CC1CCc2ccccc2C1=O` (stereo not given), the GI50 was 18.6 µM (inactive) in assay [1]; 3.04 µM in [2]; 13.7 µM (inactive) in assay [3]; 10.8 µM (inactive) in assay [4]; 1.64 µM (inactive) in [5]; 1.8 µM (inactive) in assay [6]. Moreover, the GI50 in assay [7] was 13.3 µM (inactive); in assay [8], 19.7 µM (inactive); in assay [9], 0.0809 µM (active); in assay [10], 4.49 µM (inactive); in assay [11], 16.1 µM (inactive); in [12], 17.1 µM (inactive). Also, the GI50 in assay [13] is 1.43 µM (inactive); in [14], 17.3 µM (inactive); in [15], 34.1 µM (inactive); in assay [16], 8.89 µM (inactive); in assay [17], 16.7 µM (inactive); in assay [18] it was 6.53 µM (inactive). The GI50 in [19] is 5.64 µM (inactive); in assay [20], 18.3 µM (inactive).
Take `CN(Cc1cnc2nc(N)nc(N)c2n1)c1ccc(C(=O)NC(CCC(=O)NCCC(P(=O)(O)O)P(=O)(O)O)C(=O)O)cc1` (stereo not given): the GI50 was 21.2 µM (inactive) in assay [1]; 6.67 µM in assay [2]; > 100 µM (inactive) in assay [3]; 6.38 µM (inactive) in assay [4]; 5 µM (inactive) in assay [5]; > 35.8 µM (inactive) in assay [6]. For the same molecule, the GI50 in assay [7] was 24.5 µM (inactive); in [8], 4.35 µM (inactive); in assay [9] it was > 88.3 µM (inactive); in assay [10] it was 37.2 µM (inactive); in assay [11] it was 25.1 µM (inactive); in [12] it was 7.29 µM (inactive). Further, the GI50 was 6.85 µM (inactive) in [13]; 14.2 µM (inactive) in assay [14]; 18.7 µM (inactive) in [15]; > 100 µM (inactive) in [16]; > 100 µM (inactive) in [17]; > 67.9 µM (inactive) in assay [18]. The GI50 is 25.9 µM (inactive) in [19] and 22 µM (inactive) in assay [20].
As for `CN(CCCNC(=O)c1nn(-c2ccccc2)c2c1ccc1ccccc12)CCCNC(=O)c1nn(-c2ccccc2)c2c1ccc1ccccc12`, the GI50 in assay [1] is 1.91 µM (inactive); in assay [2], 1.84 µM; in [3], 2.58 µM (inactive); in assay [4] it was 2.16 µM (inactive); in assay [5], 1.8 µM (inactive); in assay [6], 1.77 µM (inactive). Further, the GI50 in assay [7] is 1.82 µM (inactive); in assay [8] it was 1.76 µM (inactive); in [9], 1.79 µM (inactive); in assay [10], 1.5 µM (inactive); in assay [11], 2.3 µM (inactive); in assay [12], 1.85 µM (inactive). Further, the GI50 in assay [13] was 1.47 µM (inactive); in assay [14], 1.98 µM (inactive); in [15], 1.87 µM (inactive); in assay [16], 1.74 µM (inactive); in [17], 1.64 µM (inactive); in assay [18], 1.82 µM (inactive). The GI50 was 1.6 µM (inactive) in assay [19] and 1.52 µM (inactive) in assay [20].
`N#CCCN(CCNc1ccccc1)C(=O)Nc1ccc(NC(=O)N(CCC#N)CCNc2ccccc2)cc1`: the GI50 was > 92.9 µM (inactive) in assay [1]; more than 60.3 µM in assay [2]; > 41.9 µM (inactive) in assay [3]; > 96.6 µM (inactive) in assay [4]; > 100 µM (inactive) in assay [5]; > 100 µM (inactive) in assay [6]. The GI50 in [7] is > 68.4 µM (inactive); in assay [8], > 67.6 µM (inactive); in assay [9] it was 21.1 µM (inactive); in assay [10], > 92.9 µM (inactive); in assay [11], > 100 µM (inactive); in assay [12], > 73.8 µM (inactive). Further, the GI50 in assay [13] is > 100 µM (inactive); in assay [14] it was > 47.4 µM (inactive); in assay [15], > 74.6 µM (inactive); in assay [16], > 94.8 µM (inactive); in assay [17] it was 26.2 µM (inactive); in assay [18] it was > 58.1 µM (inactive). Also, the GI50 in assay [19] and in [20] was > 100 µM (inactive) each time.
